# Results as given in article PMC10017709, “Structural basis of selective cannabinoid CB2 receptor activation” (Nature Communications, 2023).
# Where “and” joins values, the source holds several entries; their conditions need not be identical. Equal entries are not always repeated. Where two headings read alike, the source gives them in different places.
# Tests used:
# hCB1R WT = hCB1R WT (Homo sapiens, UniProt P21554); assay: [3H]CP55,940 displacement assay, CB1R WT; format: binding; settings: CB1R WT; 10 µM compound
# CB2R-F117^3.36A = CB2R-F117^3.36A (Homo sapiens, UniProt P34972, F117A); assay: [35S]GTPγS assay, CB2R F117A mutant; format: biochemical
# CB1R QuadrupleTM1,7 [1] = target: T1, CB1R QuadrupleTM1,7 (Homo sapiens, UniProt P21554, I119V/Q116K/S123C/T377K); assay: [3H]CP55,940 displacement assay, CB1R quadruple mutant; format: binding
# T1 construct: The WT CB1R and CB2R genes were subcloned into vector pcDNA3.1; HA signal peptide (N); expressed in transfected cells; host or cells: HEK293T (transient, membrane homogenates)
# CB1R-L359^6.51V = CB1R-L359^6.51V (Homo sapiens, UniProt P21554, L359V); assay: [3H]CP55,940 displacement assay, CB1R L359V mutant; format: binding
# CB1R QuadrupleTM1,7 [2] = assay: [35S]GTPγS assay, CB1R quadruple mutant; format: biochemical, human; settings: CB1R Quadruple TM1,7; 10 µM agonist
# CB2R-L185^ECL2H = CB2R-L185^ECL2H (Homo sapiens, UniProt P34972, L185H); assay: [35S]GTPγS assay, CB2R L185H mutant; format: biochemical; settings: L185H mutant; at 10 µM compared to WT; read-out: Emax (%)
# CB2R WT = CB2R WT (Homo sapiens, UniProt P34972); assay: [35S]GTPγS G protein activation assay, CB2R WT; format: biochemical; settings: for Emax: CB2R WT, read-out: Emax (%); for [35S]GTPγS binding, percentage of CP55,940: individual replicates
# CB1R I267ECL2L = CB1R I267ECL2L (Homo sapiens, UniProt P21554, I267L); assay: [35S]GTPγS assay, CB1R I267L mutant; format: biochemical; settings: CB1R I267L; 10 µM agonist
# CB2R-I110^3.29L = CB2R-I110^3.29L (Homo sapiens, UniProt P34972, I110L); assay: [3H]CP55,940 displacement assay, CB2R I110L mutant; format: binding; settings: I1103.29L, individual replicates
# CB1R D266ECL2E = target: T2, CB1R D266ECL2E (Homo sapiens, UniProt P21554, D266E); assay: [35S]GTPγS assay, CB1R D266E mutant; format: biochemical; settings: CB1R D266E; 10 µM agonist
# T2 construct: The WT CB1R and CB2R genes were subcloned into vector pcDNA3.1; HA signal peptide (N); expressed in transfected cells; host or cells: HEK293T (transient, membrane homogenates)
# CB2R-Quadruple^TM1,7 = CB2R-Quadruple^TM1,7 (Homo sapiens, UniProt P34972, C40S/K279T/K33Q/V36I); assay: [35S]GTPγS assay, CB2R quadruple mutant; format: biochemical; settings: for [35S]GTPγS binding: QuadrupleTM1,7, individual replicates
# Sequence of CB2R-Quadruple^TM1,7 (P34972 whole entry K33Q/V36I/C40S/K279T): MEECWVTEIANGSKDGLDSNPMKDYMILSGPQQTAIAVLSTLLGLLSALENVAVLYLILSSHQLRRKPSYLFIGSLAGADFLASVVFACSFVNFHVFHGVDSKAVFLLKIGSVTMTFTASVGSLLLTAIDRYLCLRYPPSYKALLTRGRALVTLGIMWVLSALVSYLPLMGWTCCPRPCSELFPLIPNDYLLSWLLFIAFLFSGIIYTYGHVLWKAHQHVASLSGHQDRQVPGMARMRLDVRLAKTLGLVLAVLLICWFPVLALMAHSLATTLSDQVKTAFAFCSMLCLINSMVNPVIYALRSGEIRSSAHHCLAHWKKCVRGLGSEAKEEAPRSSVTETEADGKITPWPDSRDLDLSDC
# Sequence of CB1R-L359^6.51V (P21554 whole entry L359V): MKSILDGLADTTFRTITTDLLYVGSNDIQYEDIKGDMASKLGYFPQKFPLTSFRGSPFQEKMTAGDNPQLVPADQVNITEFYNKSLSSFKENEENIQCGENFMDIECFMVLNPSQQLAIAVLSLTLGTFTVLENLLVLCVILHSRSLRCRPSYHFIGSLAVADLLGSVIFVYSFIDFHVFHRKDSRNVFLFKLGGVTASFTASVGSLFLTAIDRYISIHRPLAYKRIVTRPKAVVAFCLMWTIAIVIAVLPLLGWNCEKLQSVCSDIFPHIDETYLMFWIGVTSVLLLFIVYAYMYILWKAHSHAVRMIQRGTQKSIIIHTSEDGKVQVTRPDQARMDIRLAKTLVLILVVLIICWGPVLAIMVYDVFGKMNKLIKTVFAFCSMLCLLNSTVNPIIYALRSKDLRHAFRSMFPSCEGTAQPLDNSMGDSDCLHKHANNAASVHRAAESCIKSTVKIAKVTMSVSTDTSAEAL
# T1 sequence (P21554 whole entry Q116K/I119V/S123C/T377K): as the sequence (P21554 whole entry L359V) above, with Q116K, I119V, S123C, V359L, T377K counted along it
# Sequence of CB2R WT (P34972 whole entry): as the sequence (P34972 whole entry K33Q/V36I/C40S/K279T) above, with Q33K, I36V, S40C, T279K counted along it
# Sequence of CB2R-I110^3.29L (P34972 whole entry I110L): as the sequence (P34972 whole entry K33Q/V36I/C40S/K279T) above, with Q33K, I36V, S40C, I110L, T279K counted along it
# Sequence of CB2R-F117^3.36A (P34972 whole entry F117A): as the sequence (P34972 whole entry K33Q/V36I/C40S/K279T) above, with Q33K, I36V, S40C, F117A, T279K counted along it
# Sequence of CB1R I267ECL2L (P21554 whole entry I267L): as the sequence (P21554 whole entry L359V) above, with I267L, V359L counted along it
# Sequence of hCB1R WT (P21554 whole entry): as the sequence (P21554 whole entry L359V) above, with V359L counted along it
# T2 sequence (P21554 whole entry D266E): as the sequence (P21554 whole entry L359V) above, with D266E, V359L counted along it
# Sequence of CB2R-L185^ECL2H (P34972 whole entry L185H): as the sequence (P34972 whole entry K33Q/V36I/C40S/K279T) above, with Q33K, I36V, S40C, L185H, T279K counted along it
smiles,measurement,setting,value
CC(C)(C)[C@@H](CO)NC(=O)c1nn(-c2c[n+]([O-])ccn2)c2c1C[C@@H]1C[C@H]21 [APD371],"Displacement (%) of [3H]CP55,940",hCB1R WT,-19 ± 17%
same,Emax,"CB2R-F117^3.36A; F117A mutant, at 10 µM compared to WT, read-out: Emax (%)",2 ± 6%
same,[35S]GTPγS binding,"CB2R-F117^3.36A; F1173.36A, log [ligand] (M) -5, individual replicates",-3.66 percentage of WT and 14.36 percentage of WT and -4.64 percentage of WT
same,"Displacement (%) of [3H]CP55,940","CB1R QuadrupleTM1,7 [1]; CB1R Quadruple TM1,7, 10 µM compound",0 ± 25%
same,"percentage specific [3H]CP55,940 binding","CB1R QuadrupleTM1,7 [1]; CB1R QuadrupleTM1,7, 10 µM ligand, replicates 1-3",125.90 percentage and 49.87 percentage and 125.34 percentage
same,"Displacement (%) of [3H]CP55,940","CB1R-L359^6.51V; CB1R L359V, 10 µM compound",18 ± 9%
same,"percentage specific [3H]CP55,940 binding","CB1R-L359^6.51V; CB1R L3596.51V, 10 µM ligand, replicates 1-3",78.52 percentage and 68.29 percentage and 98.34 percentage
same,Agonist-mediated activation,"CB1R QuadrupleTM1,7 [2]",1.1 ± 0.0 fold over its basal
same,Emax,CB2R-L185^ECL2H,183 ± 16%
same,Emax,CB2R WT; maximum effect at 10 µM compared to WT (Suppl. Table 6),109 ± 3%
same,Emax,"CB2R WT; maximum effect compared to CP55,940",134 ± 12%
same,"[35S]GTPγS binding, percentage of CP55,940",CB2R WT; log [agonist] (M) -5,148.28% and 110.29% and 144.01%
same,"[35S]GTPγS binding, percentage of CP55,940",CB2R WT; log [agonist] (M) -6,121.47% and 91.68% and 110.37%
same,"[35S]GTPγS binding, percentage of CP55,940",CB2R WT; log [agonist] (M) -7,71.38% and 61.86% and 107.40%
same,"[35S]GTPγS binding, percentage of CP55,940",CB2R WT; log [agonist] (M) -8,40.70% and 28.22% and 92.24%
same,"[35S]GTPγS binding, percentage of CP55,940",CB2R WT; log [agonist] (M) -9,-4.49% and -11.58% and 35.79%
same,"[35S]GTPγS binding, percentage of CP55,940",CB2R WT; log [agonist] (M) -10,14.57% and -14.11% and 7.29%
same,Agonist-mediated activation,CB1R I267ECL2L,0.9 ± 0.0 fold over its basal
same,"percentage specific [3H]CP55,940 binding",CB2R-I110^3.29L; log [ligand] (M) -5,4.49% and 2.95% and 7.70%
same,"percentage specific [3H]CP55,940 binding",CB2R-I110^3.29L; log [ligand] (M) -6,22.45% and 22.51% and 25.37%
same,"percentage specific [3H]CP55,940 binding",CB2R-I110^3.29L; log [ligand] (M) -7,63.92% and 66.51% and 68.51%
same,"percentage specific [3H]CP55,940 binding",CB2R-I110^3.29L; log [ligand] (M) -8,89.64% and 87.54% and 115.07%
same,"percentage specific [3H]CP55,940 binding",CB2R-I110^3.29L; log [ligand] (M) -9,93.11% and 90.99% and 98.90%
same,"percentage specific [3H]CP55,940 binding",CB2R-I110^3.29L; log [ligand] (M) -10,86.70% and 95.29% and 99.01%
same,Agonist-mediated activation,CB1R D266ECL2E,0.9 ± 0.1 fold over its basal
same,Emax,"CB2R-Quadruple^TM1,7; Quadruple TM1,7 mutant, at 10 µM compared to WT, read-out: Emax (%)",35 ± 7%
same,[35S]GTPγS binding,"CB2R-Quadruple^TM1,7; log [ligand] (M) -5",35.07 percentage of WT and 47.26 percentage of WT and 22.67 percentage of WT
same,[35S]GTPγS binding,"CB2R-Quadruple^TM1,7; log [ligand] (M) -6",15.07 percentage of WT and 38.79 percentage of WT and 23.35 percentage of WT
same,[35S]GTPγS binding,"CB2R-Quadruple^TM1,7; log [ligand] (M) -7",-3.98 percentage of WT and 20.94 percentage of WT and 22.86 percentage of WT
same,[35S]GTPγS binding,"CB2R-Quadruple^TM1,7; log [ligand] (M) -8",22.19 percentage of WT and 25.68 percentage of WT and 22.32 percentage of WT
same,[35S]GTPγS binding,"CB2R-Quadruple^TM1,7; log [ligand] (M) -9",-7.96 percentage of WT and -0.64 percentage of WT and 0.99 percentage of WT
same,[35S]GTPγS binding,"CB2R-Quadruple^TM1,7; log [ligand] (M) -10",-4.29 percentage of WT and 0.80 percentage of WT and 9.16 percentage of WT
